Patent US20240075073A1, “TREATING OPTIC NEURITIS WITH INDUCED PLURIPOTENT STEM CELL-DERIVED OLIGODENDROCYTE PRECURSOR CELLS” (Mayo Foundation for Medical Education and Research, priority 2016, published 2024)
Entries after “also recorded” stand apart in the source; their conditions may differ.

Assays:
[1] = tested on: optic nerve of cuprizone-fed mice; test: Visual evoked potentials (VEP) in cuprizone-fed mice with or without OPC transplant; format: in vivo
Protocol: (§1) Cuprizone is a copper chelator, which causes apoptosis of mature oligodendroglia, followed by microglial recruitment, and phagocytosis of myelin. Demyelination was induced by feeding mice a diet containing 0.3% cuprizone for 9 weeks. […] Peak demyelination occurred at 6-7 weeks with spontaneous remyelination occurring 2-4 weeks after transition to regular diet. Efficacy of OPC transplants upon reintroduction of regular diet was evaluated. Assessment of remyelination following transplant was performed as described elsewhere (Deb et al., PLoS One, 5:e12478 (2010)). Briefly, semi-thin sections of optic nerves were stained with para-phenylenediamine, imaged at 100× magnification following a predetermined sampling scheme, and analyzed using automated ImageJ macros to measure myelinated fibers.
Maintaining a sterile field, 1.0 μL of media containing >10^4 OPCs were injected into the vitreous humor of anesthetized mice, using a custom 34-gauge needle mounted on a 5 μL Hamilton syringe. Despite the small dimensions of the murine eye and the high needle gauge, OPCs were consistently and reproducibly delivered into the vitreous cavity with this method, and transferred cells were imaged using fluorescent fundus imaging of the mouse eye (evidence from >30 mice; data not included) (FIG. 6A).
To measure the functional outcomes of OPC transplantation, VEPs were recorded. Intracranial supradural screw electrodes (plastics1.com 8L0X3905201F) were implanted over the visual cortex as described elsewhere (Deb et al., (2010) PLoS One 5:e12478) (FIG. 4I-4K). After dark adaptation, mice were placed in a recording chamber connected to a recording system (8200-K1-SE3, Pinnacle Technology) using an implanted EEG headmount (8235-SM, Pinnacle Tech) tethered to a preamplifier (8202-SE3, Pinnacle Tech) and an analog-to-digital converter. Mice were visually stimulated by an on-axis flashing LED. VEPs were recorded with varying stimulus blocks from 0.1 Hz to 1000 Hz (controlled via a programmable Arduino Diecimila). Recording parameters measured latency to N1 (the first negative peak following stimulation), amplitude range between Nmax-Pmax (first positive peak after stimulation), number of stimuli not followed by a response, duration of visual evoked response, pulse width of Pmax. Any delay in conduction velocity through the optic nerve increased time to N1, whereas axonal degeneration led to decrease in amplitude range, and an increase in response duration as well as increased pulse width due to non-synchronous firing of neurons, providing a very sensitive measure of optic nerve function.
Mice were subjected to electrode implantation surgery and either received OPC transplant or served as controls (FIGS. 7A-C), and visual evoked potential (VEP) averaging was used to establish measurements of evoked potential amplitude, latency, and peak pulse-width (FIG. 7D). Representative waveforms of VEP recordings in a healthy control animal (FIG. 7E), cuprizone-fed animal (FIG. 7F), and cuprizone-fed animal transplanted with OPCs (FIG. 7G). Latency was measured as the time from the visual stimulus to the first negative peak in the VEP impulse (FIG. 7H). An increased latency indicated decreased conduction velocity as a result of loss of myelin and Nodes of Ranvier. […] Peak width was measured as the duration of the first positive impulse at half-maximum amplitude. […]

murine optic nerves [2] = conditions: mice on diet containing 0.3% cuprizone; cited from earlier work
murine optic nerves [3] = test: PPD staining and electron microscopy of optic nerve sections, cuprizone demyelination and remyelination after OPC transplant; format: in vivo, mice
Protocol: as §1
For collection of optic nerves and brain tissue, mice were perfused with 4% paraformaldehyde or Trump's fixative, and CNS tissues were post-fixed in the respective solution for 24 hours.
Cuprizone is a copper chelator that causes apoptosis of mature oligodendroglia, followed by microglial recruitment and phagocytosis of myelin. Demyelination was induced by feeding mice a diet containing 0.3% cuprizone for 9 weeks. […] Peak demyelination occurs at 6-7 weeks with spontaneous remyelination occurring 2-4 weeks after transition to regular diet. […] Optical coherence tomography (OCT) provided quantitative assessment of neuroretinal integrity. The retinal layers measured along the green line in FIG. 4E in a healthy mouse (FIG. 4F). Note the clear retinal nerve fiber layer (RNFL), as outlined in FIG. 4H. The retinal layers measured along the yellow line in FIG. 4E in a healthy mouse (FIG. 4G). Note the thick ganglion cell layer (GCL), as outlined in FIG. 4H. Head mount surgery for placement of VEP electrodes and recording locations (FIG. 4I-K). Visual evoked potentials (VEPs) measured in the visual cortex induced by a 0.3 Hz light pulse (FIG. 4L). […] VEP averaging is used to establish measurements of evoked potential amplitude, latency, and pulse width (FIG. 4M). […]

[4] = 0.3 Hz stimulation frequency, cuprizone-fed animal compared to regular diet (FIG. 4N)

O=C(NN=C1CCCCC1)C(=O)NN=C1CCCCC1 [cuprizone]
failure to transmit impulses in VEP recording [1, 4]: increased failure to transmit impulses
latency to N1 in VEP recording from visual cortex [1, 4]: increased latency to N1
average latency (time from visual stimulus to first negative peak in the VEP impulse) ([1]; after cuprizone treatment for nine weeks, no transplant, healthy baseline 276 ms, n=5): 371 ms
peak width, shortest half for peak width values ([1]; after demyelination with cuprizone, no transplant, n=5): increased
number of missed responses ([1]; cuprizone-fed animals, no transplant, n=5): greatly increased
time of peak demyelination (murine optic nerves [2]): 6-7 weeks
optic nerve myelination, PPD staining of semi-thin sections (murine optic nerves [3]; after 6 weeks of cuprizone treatment): profound demyelination
optic nerve myelination, PPD staining of semi-thin sections (murine optic nerves [3]; after 9 weeks of cuprizone treatment): profound demyelination
myelin layers in electron micrographs of thin optic nerve cross sections (murine optic nerves [3]; cuprizone-treated animals, no transplant): thinning and disorganization of myelin layers; also recorded: thinning, and disorganization of myelin layers
